For experiment [1], the target named is T1, human NTCP (Homo sapiens, UniProt Q14973).
T1 sequence (Q14973 1-349): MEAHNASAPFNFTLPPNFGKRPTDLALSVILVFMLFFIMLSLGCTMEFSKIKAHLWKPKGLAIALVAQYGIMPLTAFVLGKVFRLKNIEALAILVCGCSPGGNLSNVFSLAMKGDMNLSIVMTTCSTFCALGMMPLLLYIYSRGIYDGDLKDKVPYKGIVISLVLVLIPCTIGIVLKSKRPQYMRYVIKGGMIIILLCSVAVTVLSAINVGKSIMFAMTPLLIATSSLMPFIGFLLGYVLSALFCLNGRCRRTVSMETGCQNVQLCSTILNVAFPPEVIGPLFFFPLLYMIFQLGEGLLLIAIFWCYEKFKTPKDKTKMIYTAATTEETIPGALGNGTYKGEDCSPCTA
Description: Screening taurocholate uptake assay (96-well, [14C]taurocholate, 10 µM drug).

For experiment [2], the target named is T1, human NTCP. Description: Screening fluorescent competitive Myrcludex B-FITC binding assay (96-well, 10 µM drug).
[3] abbreviates: Prestwick library screen, taurocholate uptake, 10 µM drug.
Where [4] appears, read: ranking score beside the functional and binding assay B-scores of the screen.
[5] abbreviates: Prestwick library screen, Myrcludex B-FITC binding, 10 µM drug.
Setting [6] is: Prestwick library screen, 10 µM drug, B-score of taurocholate uptake.
Setting [7] is: combined ranking from functional and binding assay B-scores.
The mark [8] stands for this setting: Prestwick library screen, 10 µM drug, B-score of Myrcludex B-FITC binding.
[9] abbreviates: combined ranking from functional and binding screening assays.
[10] abbreviates: screen, 10 µM drug, taurocholate uptake.
Where [11] appears, read: screen, 10 µM drug, Myrcludex B-FITC binding.

For 29 compounds, B-score functional assay, Ranking score and B-score binding assay results are on record in paper PMC5681660, “Reduced hepatitis B and D viral entry using clinically applied drugs as novel inhibitors of the bile acid transporter NTCP” (Scientific Reports, 2017).

Counter-ions that a name gives are not always drawn. Like-named read-outs stand apart in the source and are kept apart here.

With `Nc1ccn([C@@H]2O[C@H](CO)[C@@H](O)C2(F)F)c(=O)n1` [Gemcitabine], the B-score functional assay in experiment [1] (setting [3]) was 0.015. In experiment [1] (setting [4]), this compound came in with a Ranking score of 717.496. The B-score binding assay in experiment [2] (setting [5]) is 0.165.

In experiment [1] (setting [3]), `Oc1ncnc2[nH]ncc12` [Allopurinol] registered a B-score functional assay of 0.076. This compound also yielded a Ranking score in experiment [1] (setting [4]) of 820.729. The same compound came in with a B-score binding assay in experiment [2] (setting [5]) of 0.547.

As for `C1CCc2nnnn2CC1` [Pentylenetetrazole], in experiment [1] (setting [3]), the B-score functional assay is 0.223. In addition, the Ranking score in experiment [1] (setting [4]) is reported as 696.951. The B-score binding assay in experiment [2] (setting [5]) is recorded as -0.037.

In experiment [1] (setting [6]), `CN(C)CCCSC(=N)N.Cl.Cl` [Dimaprit dihydrochloride] returned a B-score functional assay of 0.472. For the same compound, in experiment [1] (setting [7]), the Ranking score was determined as 1022.56. The same compound showed a B-score binding assay in experiment [2] (setting [8]) of 1.724.

Take `CC(Oc1ccccc1)C(=O)N[C@@H]1C(=O)N2[C@@H]1SC(C)(C)[C@@H]2C(=O)[O-].[K+]` (stereo partly drawn) [Phenethicillin potassium salt]: the Ranking score in experiment [1] (setting [9]) stood at 437.958. In experiment [1] (setting [10]), the B-score functional assay was -0.676. For the same compound, the B-score binding assay in experiment [2] (setting [11]) is on record as -0.048.

`CS(=O)(=O)O.OC(CCN1CCCCC1)(c1ccccc1)c1ccccc1` [Pridinol methanesulfonate salt] gave a B-score functional assay in experiment [1] (setting [6]) of 1.063. Moreover, the Ranking score in experiment [1] (setting [7]) came out at 875.882. The B-score binding assay in experiment [2] (setting [8]) worked out at 0.059.

Regarding `C[C@@H](c1ncncc1F)[C@](O)(Cn1cncn1)c1ccc(F)cc1F` [Voriconazole], in experiment [1] (setting [9]), the Ranking score is listed as 370.988. In experiment [1] (setting [10]), the B-score functional assay was -0.582. In experiment [2] (setting [11]), the B-score binding assay is -0.464.

As for `CO/N=C(\C(=O)N[C@@H]1C(=O)N2C(C(=O)O)=C(COC(N)=O)CS[C@H]12)c1ccco1` [Cefuroxime sodium salt], the B-score functional assay in experiment [1] (setting [3]) is given as 0.233. Further, the Ranking score in experiment [1] (setting [4]) is on record as 660.887. The same compound yielded a B-score binding assay in experiment [2] (setting [5]) of -0.123.

Regarding Eburnamonine (-), in experiment [1] (setting [9]), the Ranking score amounted to 349.983. For the same compound, the B-score functional assay in experiment [1] (setting [10]) is given as -1.058. This compound also registered a B-score binding assay in experiment [2] (setting [11]) of -0.173.

Regarding `CN1CCN(CCCN2c3ccccc3Sc3ccc(C(F)(F)F)cc32)CC1` [Trifluoperazine dihydrochloride], in experiment [1] (setting [3]), the B-score functional assay was found to be 0.212. For the same compound, the Ranking score in experiment [1] (setting [4]) came to 714.92. Moreover, the B-score binding assay in experiment [2] (setting [5]) is -0.002.

Consider `O=S(=O)(O)c1cc(O)ccc1O` [Ethamsylate], for which the B-score functional assay in experiment [1] (setting [6]) is 0.032. The Ranking score in experiment [1] (setting [7]) stood at 873.696. This compound also displayed a B-score binding assay in experiment [2] (setting [8]) of 1.4.

`CC1CNc2c(cccc2S(=O)(=O)N[C@@H](CCCNC(=N)N)C(=O)N2CC[C@@H](C)C[C@@H]2C(=O)O)C1` (stereo partly drawn) [Argatroban] registered a B-score functional assay in experiment [1] (setting [3]) of -0.168. The compound further returned a Ranking score in experiment [1] (setting [4]) of 668.874. This compound also displayed a B-score binding assay in experiment [2] (setting [5]) of 0.437.

On to `Nc1ccc(S(=O)(=O)Nc2ccccn2)cc1` [Sulfapyridine], for which the Ranking score in experiment [1] (setting [9]) was found to be 331.804. The B-score functional assay in experiment [1] (setting [10]) is on record as 0.557. Also, the B-score binding assay in experiment [2] (setting [11]) is reported as -1.889.

Consider `[H]/N=C(\N/C(=N/[H])Nc1ccc(Cl)cc1)NC(C)C` [Proguanil hydrochloride], for which, in experiment [1] (setting [9]), the Ranking score is listed as 309.176. In experiment [1] (setting [10]), this compound came in with a B-score functional assay of -0.025. This compound displayed a B-score binding assay in experiment [2] (setting [11]) of -1.489.

Consider `CN1CCN(CC(=O)N2c3ccccc3C(=O)Nc3cccnc32)CC1` [Pirenzepine dihydrochloride], for which the B-score functional assay in experiment [1] (setting [6]) is 0.753. For the same compound, in experiment [1] (setting [7]), the Ranking score is 857.349. Also, the B-score binding assay in experiment [2] (setting [8]) came to 0.089.

`CN[C@@H]1[C@@H](O)[C@@H](O[C@@H]2[C@@H](O)[C@H](O[C@H]3OC(CN)=CC[C@H]3N)[C@@H](N)C[C@H]2N)OC[C@]1(C)O` [Sisomicin sulfate] gave a B-score functional assay in experiment [1] (setting [6]) of 1.589. In addition, the Ranking score in experiment [1] (setting [7]) stood at 1018.48. Further, the B-score binding assay in experiment [2] (setting [8]) was found to be 0.455.

Compound `CCN1C(=O)NC(c2ccccc2)C1=O` (stereo not drawn) [Ethotoin] showed a B-score functional assay in experiment [1] (setting [6]) of 3.216. In experiment [1] (setting [7]), the Ranking score is 1133.18. In experiment [2] (setting [8]), the B-score binding assay is recorded as 0.936.

For the compound `Cc1cc(=O)oc2cc(O)ccc12` [Hymecromone], the Ranking score in experiment [1] (setting [9]) was 448.437. This compound also showed a B-score functional assay in experiment [1] (setting [10]) of -0.811. In experiment [2] (setting [11]), this compound registered a B-score binding assay of 0.036.

For the compound `COc1c(N2C[C@@H]3CCCN[C@@H]3C2)c(F)cc2c(=O)c(C(=O)O)cn(C3CC3)c12` [Moxifloxacin], the Ranking score in experiment [1] (setting [9]) stood at 388.165. Further, the B-score functional assay in experiment [1] (setting [10]) stood at 0.4. This compound also showed a B-score binding assay in experiment [2] (setting [11]) of -1.402.

In the case of `CCCCC(=O)N(Cc1ccc(-c2ccccc2-c2nnn[nH]2)cc1)[C@H](C(=O)O)C(C)C` [Valsartan], the Ranking score in experiment [1] is given as 721.211. The same compound displayed a B-score functional assay in experiment [1] (setting [3]) of 0.156. Besides, the B-score binding assay in experiment [2] is 0.016.

Compound `C[C@]12CC[C@@H]3c4ccc(O)cc4CC[C@H]3[C@@H]1CCC2=O` [Estrone] came in with a B-score functional assay in experiment [1] (setting [6]) of 0.06. Further, the Ranking score in experiment [1] (setting [7]) is listed as 855.9. The compound further gave a B-score binding assay in experiment [2] (setting [8]) of 0.944.

In turn, `O=C1c2cccc3c2[C@H](CCC3)CN1[C@@H]1CN2CCC1CC2` [Palonosetron hydrochloride] had a B-score functional assay in experiment [1] (setting [3]) of 1.95. For the same compound, the Ranking score in experiment [1] (setting [4]) stood at 833.96. This compound also registered a B-score binding assay in experiment [2] (setting [5]) of -0.051.

Turning to `CCC(C)n1ncn(-c2ccc(N3CCN(c4ccc(OCC5COC(Cn6cncn6)(c6ccc(Cl)cc6Cl)O5)cc4)CC3)cc2)c1=O` (stereo not drawn) [Itraconazole], the B-score functional assay in experiment [1] (setting [6]) is listed as 0.058. In experiment [1] (setting [7]), the Ranking score was found to be 871.813. This compound returned a B-score binding assay in experiment [2] (setting [8]) of 1.124.

Compound `CCN(CC)C(=O)N1CCN(C)CC1` [Diethylcarbamazine citrate] registered a B-score functional assay in experiment [1] (setting [3]) of 0.671. The Ranking score in experiment [1] (setting [4]) amounted to 718.594. Moreover, the B-score binding assay in experiment [2] (setting [5]) is given as -0.121.

In experiment [1] (setting [3]), `CN[C@@H]1C[C@@H](c2ccc(Cl)c(Cl)c2)c2ccccc21` [Indatraline hydrochloride] yielded a B-score functional assay of 0.152. This compound also had a Ranking score in experiment [1] (setting [4]) of 814.16. Moreover, the B-score binding assay in experiment [2] (setting [5]) is 0.336.

As for `CCCc1nn(C)c2c(=O)[nH]c(-c3cc(S(=O)(=O)N4CCN(C)CC4)ccc3OCC)nc12` [Sildenafil], the B-score functional assay in experiment [1] (setting [3]) came out at 0.011. In experiment [1] (setting [4]), this compound displayed a Ranking score of 755.751. Besides, the B-score binding assay in experiment [2] (setting [5]) amounted to 0.383.

In experiment [1], `COc1ccc2[nH]c([S+]([O-])Cc3ncc(C)c(OC)c3C)nc2n1` (stereo not drawn) [Tenatoprazole] had a B-score functional assay of -1.232 and a Ranking score of 199.975. In addition, in experiment [2], the B-score binding assay is -1.326.

As to `CN(C)[C@@H]1C(O)=C(C(N)=O)C(=O)[C@@]2(O)C(O)=C3C(=O)c4c(O)cccc4[C@@](C)(O)[C@H]3[C@H](O)[C@@H]12` [Oxytetracycline dihydrate], the B-score functional assay in experiment [1] (setting [6]) amounted to 0.414. Also, the Ranking score in experiment [1] (setting [7]) amounted to 958.668. Also, the B-score binding assay in experiment [2] (setting [8]) is reported as 1.019.

In turn, `O=C(Nc1ccccc1)OCC(CN1CCCCC1)OC(=O)Nc1ccccc1` (stereo not drawn) [Diperodon hydrochloride] displayed a B-score functional assay in experiment [1] (setting [3]) of 0.512. This compound showed a Ranking score in experiment [1] (setting [4]) of 772.884. In addition, the B-score binding assay in experiment [2] (setting [5]) is given as 0.002.
